{
  "source": "patent US20240083949A1",
  "about": "“CELL PENETRATING PEPTIDE COMPOSITIONS AND METHODS THEREOF” (The Regents of the University of California, priority 2022, published 2024)",
  "key": {"U87": {"system": "U87", "experiment": "Confocal microscopy for internalization of EPP6-GEM", "type": "cell-based, human", "settings": "500 nM, U87 cells", "experimental": "After purification of this conjugate, EPP6-GEM was dissolved in DMSO and diluted to 500 nM in full media (DMEM) and administered to the immortalized glioblastoma cell line U87. These cells were monitored using Confocal Microscopy for internalization of the conjugate. FIGS. 11A-11C show three images of U87 cells with different combinations of dyes internalized. […] EPP6-GEM has been outfitted with a Rhodamine B dye. […] Cell viability experiments were carried out to determine if the conjugate can kill cells at a similar rate to the free drug or at an improved rate."}, "U87 cells [1]": {"system": "U87 cells", "settings": "500 nM, crystal violet", "text": "(§1) Crystal violet staining is a cell viability test used to determine if a drug or molecule is killing cells based on the difference in cell number from the untreated control. U87 cells are an adherent cell line if they are alive and healthy, they attach securely to the bottom of the petri dish. Herein we passaged U87 cells into a 96-well plate and made quadruplets for each concentration of the drug we planned to use. After staining the cells that remained after treatment with both the drug and the EPP6-GEM conjugate, the cells were then photographed with a cell phone and compared to the control wells (FIGS. 12A-13C)."}, "FIBCD1-KO U87 cell line": {"system": "FIBCD1-KO U87 cell line", "settings": "500 nM, FIBCD1-KO U87 cells, crystal violet", "text": "as §1"}, "[2]": {"settings": "MDCK, MDCK monolayer, trans-well, three hours of incubation, 10 μM"}, "Lipid binding assay": {"experiment": "Lipid binding assay", "settings": "liposomes, RB-EPP6 1 nM to 10 μM", "experimental": "Lipid binding assay. 95% egg PC, 5% nitrobenzoxadiazole (NBD) were added to 1% cholesterol, PE, PG, ganglioside, SM and PA to make liposomes individually. RB-EPP 6 was diluted with HEPES buffer to different concentrations, ranging from 1 nM to 10 μM. For each lipid type, 400 μl liposomes of 50 μg/ml were added to 400 μl of each RB-EPP 6 concentration. The mixture was incubated at room temperature for 15 min. 80 μl of each condition was collected to measure the fluorescence intensity of NBD suing the Synergy H1 microplate reader."}, "[3]": {"experiment": "Octanol-water partition assay", "type": "physicochemical", "experimental": "Octanol-water partition assay. For each RB-EPP, pre-mix 250 μl of octanol with 250 μl of water in a 1.5 ml centrifuge tube. 2 μl of RB-EPP was added to the solution at the concentration of 500 μM. After vortex the mixture, centrifuge at the highest speed for 10 min to separate the octanol and water phases. Samples were collected from both phases and quantified by the Analytical HPLC separately."}, "U87 cells [4]": {"system": "U87 cells", "experiment": "RB-EPP6 uptake after caveolin CRISPR knockout", "type": "cell-based, human", "settings": "data not shown", "experimental": "(§2) Plasmid transfection assays. 300 k U87 cells were seeded in the 35×10 mm dish for overnight culture. Plasmids (caveolin, 75 ng; clathrin, 100 ng; rab5, 100 ng; rab7a, 10 ng; caveolin-1 CRISPR/Cas9 KO, 3 μg; FIBCD1 CRISPR/Cas9 KO, 3 ug; Control CRISPR, 3 ug) were diluted with Plasmid Transfection Medium (sc-108062) to 50 μl. UltraCruz Transfection Reagent (Santa Cruz Biotechnology) was also diluted with Plasmid Transfection Medium to 50 μl. Plasmids and transfection reagent were mixed well and kept at room temperature for 20 min. Replace the cells with PS free medium and add the mixture to the cells, culture for another 24 h."}, "U87 cells [5]": {"system": "U87 cells", "experiment": "Intracellular trafficking of EPP6 conjugates (endosome markers, organelle trackers, time series, EB staining)", "type": "cell-based, human", "experimental": "Time series experiment. U87 Cells were incubated with RB-EPP 6 at 500 nM for 1 h. After wash with fresh medium once, the cells were kept in the 5% CO2 incubator at 37° C. for different time durations (1 h, 2 h, 6 h and 24 h) before confocal imaging.\nOrganelle tracker colocalization experiment. Stock solution of trackers for mitochondria, lysosome and ER were diluted with cell culture medium into 100 nM, 500 nM and 4 μM respectively. RB-EPP 6 was added into each working solution at 500 nM. U87 cells were incubated with the both trackers and RB-EPP 6 for 1 h and then washed once before confocal imaging.\nas §2\nEthidium bromide (EB) staining. U87 cells were incubated with 2 μg/ml EB with or without the conjugation of EPP6 for an hour, 3 hours and 6 hours respectively. After 1 h and the cells were washed with fresh phenol-free media once before confocal imaging.\nStatistical analysis. Pearson's correlation coefficient was used to calculate correlation between RB and tracker channels in the organelle tracker experiment. Graph generation and statistical analyses were performed using Fiji software."}, "U87 cells [6]": {"system": "U87 cells", "experiment": "Temperature control comparison experiment (RB-EPP6 uptake at 37° C. and 4° C.)", "type": "cell-based, human", "settings": "500 nM, 1 h", "experimental": "(§3) Confocal Imaging experiments. To image the cells, a Zeiss 880 inverted confocal laser scanning microscope (Carl Zeiss, Germany) was used. Image acquisition and analyses were carried out using the manufacturer's software (ZEN, Carl Zeiss). Quantification of fluorescence intensity in single cells was performed using Fiji software.\nTemperature control comparison experiment. U87 cells were kept in the cold room for half an hour before incubated with RB-EPP 6. After that, cells were incubated with RB-EPP 6 at 500 nM at 4° C. Cells in the control group were incubated at 37° C. After 1 h, cells were wash with fresh medium once respectively before confocal imaging."}, "U87 cells [7]": {"system": "U87 cells", "experiment": "Confocal imaging of Dye-EPP uptake in U87 cells", "type": "cell-based, human", "settings": "RB-tagged EPPs, U87 cells, confocal imaging, ranking among EPP1-7", "experimental": "as §3\nDye-EPP incubation. For general incubation, 300 k U87 cells were seeded in full medium containing 10% FBS and 1% PS in a 35×10 mm petri dish. The cells were incubated overnight in full medium. Stock solution of Dye-EPPs were made in DMSO to reach a concentration of 500 μM. Fresh cell culture medium was used to dilute the stock solution to 500 nM and replace the old medium on day 2. Cells were incubated with RB-EPPs for different time periods, followed by a one-time wash with phenol-free fresh culture medium before measurements.\nConcentration gradient experiment. U87 Cells were incubated with RB-EPP 6 at different concentrations (20 nM, 200 nM, 2 μM, 20 μM, 50 μM and 100 μM). After wash with fresh medium once cells were examined by confocal imaging."}, "U87 cells [8]": {"system": "U87 cells", "experiment": "Colocalization of RB-EPP6 with mEmerald-caveolin and mEmerald-clathrin", "type": "cell-based, human", "settings": "transfected U87 cells, confocal", "experimental": "as §3, §2"}, "MDCK cells": {"system": "MDCK cells", "settings": "MDCK monolayer, trans-well, three hours"}},
  "note": "Entries after “also recorded” stand apart in the source; their conditions may differ. Starred links: 1 amine or outer side, 2 acyl side, 3 side chain; linkers in the order of their positions; H or OH if unused. Positions of bridges follow the written chain, without caps; N, C: chain ends. Non-standard residues stand in square brackets, D forms with d. Residues, ends and D or L forms follow the SMILES beside them. Triazole bridges read from a SMILES are 1,4-linked. ξ: configuration not given here. *: point of attachment. RhodamineB = CCN(CC)c1ccc2c(-c3ccccc3C(=O)*)c3ccc(=[N+](CC)CC)cc-3oc2c1; X1 = Nc1ccn([C@@H]2O[C@H](COC(=O)CCC(=O)*)[C@@H](O)C2(F)F)c(=O)n1; Lys(N3) = [N-]=[N+]=NCCCC[C@H](N)C(=O)O; ξLys(N3) = [N-]=[N+]=NCCCCC(N)C(=O)O; NMeGABA = CN(CCCC(=O)[*:2])[*:1]; dPra = C#CC[C@@H](N)C(=O)O; Pra = C#CC[C@H](N)C(=O)O",
  "data": [
    {"smiles": "CCN(CC)c1ccc2c(-c3ccccc3C(=O)N(C)CCCC(=O)N[C@@H](CCCCNC(=O)CCC(=O)OC[C@H]3O[C@@H](n4ccc(N)nc4=O)C(F)(F)[C@@H]3O)C(=O)N[C@@H]3Cc4cn(nn4)CCCCC(C(N)=O)NC(=O)[C@H](CO)NC(=O)[C@H](Cc4ccc(O)cc4)NC(=O)[C@H](Cc4ccc(O)cc4)NC(=O)[C@H](CO)NC(=O)[C@H](Cc4ccc(O)cc4)NC3=O)c3ccc(=[N+](CC)CC)cc-3oc2c1", "note": "(some centres unmarked) [EPP6-GEM] (RhodamineB-[NMeGABA]K(X1)[dPra]YSYYS[ξLys(N3)]-NH2; triazole 3-9)", "values": [
      {"measurement": "internalization (Rhodamine B signal)", "setting": "U87", "result": "some internalization is occurring"},
      {"measurement": "cell killing compared with free drug", "setting": "U87 cells [1]", "result": "can kill the cells more effectively than the free drug"},
      {"measurement": "cell killing compared with free drug", "setting": "FIBCD1-KO U87 cell line", "result": "cannot perform significantly better than the free drug"}
    ]},
    {"smiles": "CCN(CC)c1ccc2c(-c3ccccc3C(=O)N(C)CCCC(=O)N[C@H]3Cc4cn(nn4)CCCC[C@@H](C(N)=O)NC(=O)[C@H](CO)NC(=O)[C@H](Cc4ccc(O)cc4)NC(=O)[C@H](Cc4ccc(O)cc4)NC(=O)[C@H](CO)NC(=O)[C@H](Cc4ccc(O)cc4)NC3=O)c3ccc(=[N+](CC)CC)cc-3oc2c1", "note": "[RB-EPP6, RB-cy(YSYYS)] (RhodamineB-[NMeGABA][Pra]YSYYS[Lys(N3)]-NH2; triazole 2-8; N-terminus and C-terminus assumed)", "values": [
      {"measurement": "Papp", "setting": "[2]", "result": 5.25, "unit": "×10⁻⁶ cm/s"},
      {"measurement": "internalization (Rhodamine B signal)", "setting": "U87", "result": "much higher signals"},
      {"measurement": "interaction with lipid components", "setting": "Lipid binding assay", "result": "no appreciable interaction; also recorded: no significant interaction"},
      {"measurement": "hydrophobicity (octanol partitioning)", "setting": "[3]", "result": "hydrophilic"},
      {"measurement": "uptake after CRISPR caveolin", "setting": "U87 cells [4]", "result": "decreased"},
      {"measurement": "localization in early endosomes (Rab5)", "setting": "U87 cells [5]; EGFP-Rab5, after 15-min", "result": "appeared in distinct Rab5-coated vesicles"},
      {"measurement": "trafficking into mitochondria or endoplasmic reticulum", "setting": "U87 cells [5]; MitoTracker, ERTracker", "result": "did not traffic into the mitochondria or the endoplasmic reticulum"},
      {"measurement": "localization in lysosomes (LysoTracker)", "setting": "U87 cells [5]; after 3 hours", "result": "some RB-EPP6 signals appeared in lysosomes"},
      {"measurement": "retention in Rab7a+ vesicles", "setting": "U87 cells [5]; after 4 hours", "result": "a significant amount of RB-EPP6 remained inside Rab7a+vesicles"},
      {"measurement": "remaining intracellular signal", "setting": "U87 cells [5]; after 24 hours", "result": "some signals remained"},
      {"measurement": "endosomal escape to cytosol", "setting": "U87 cells [5]; imaging", "result": "could escape from the endosomes and enter the cytosol"},
      {"measurement": "time to traffic into late endosomes", "setting": "U87 cells [5]; mEmerald-Rab7a", "result": "≤ 30", "unit": "min"},
      {"measurement": "uptake at low temperature", "setting": "U87 cells [6]", "result": "no RB-EPP6 uptake; also recorded: no fluorescence signal in the cells"},
      {"measurement": "ability to enter the cells (intracellular fluorescence)", "setting": "U87 cells [7]", "result": "best performing"},
      {"measurement": "colocalization with mEmerald-caveolin", "setting": "U87 cells [8]", "result": "significantly overlapped"},
      {"measurement": "colocalization with mEmerald-clathrin", "setting": "U87 cells [8]", "result": "no overlap"},
      {"measurement": "Papp relative to RB-TAT", "setting": "MDCK cells", "result": "more than twice that of RB-TAT"}
    ]}
  ]
}
